Reference: PubChem BioAssay (NCI)
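A five-concentration, 48-hour dose response in 96-well plates underlies each endpoint, interpolated linearly between surrounding concentrations. GI50 is the concentration that inhibits growth by half. Definition used: TGI = concentration required for complete inhibition of growth.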

What was measured:
Assay in all cases: growth of human tumour cells (NCI), 48 h
[1] = system: 786-0 renal
[2] = system: A498 renal
[3] = system: A549 NSCLC
[4] = system: ACHN renal
[5] = system: BT-549 breast
[6] = system: CAKI-1 renal
[7] = system: CCRF-CEM leukemia
[8] = system: COLO 205 colon
[9] = system: DU-145 prostate
[10] = system: EKVX NSCLC
[11] = system: HCC-2998 colon
[12] = system: HCT-116 colon
[13] = system: HCT-15 colon
[14] = system: HL-60(TB) leukemia
[15] = system: HOP-62 NSCLC
[16] = system: HS 578T breast
[17] = system: IGROV1 ovarian
[18] = system: K-562 leukemia
[19] = system: KM12 colon
[20] = system: LOX IMVI melanoma
[21] = system: M14 melanoma
[22] = system: MALME-3M melanoma
[23] = system: MCF7 breast
[24] = system: MDA-MB-231 breast
[25] = system: MDA-MB-435
[26] = system: MOLT-4 leukemia
[27] = system: NCI-H226 lung
[28] = system: NCI-H23 lung
[29] = system: NCI-H460 lung
[30] = system: NCI-H522 lung
[31] = system: NCI/ADR-RES ovarian
[32] = system: OVCAR-3 ovarian
[33] = system: OVCAR-4 ovarian
[34] = system: OVCAR-5 ovarian
[35] = system: OVCAR-8 ovarian
[36] = system: PC-3 prostate
[37] = system: RXF 393 renal
[38] = system: SF-268 CNS
[39] = system: SF-295 CNS
[40] = system: SF-539 CNS
[41] = system: SK-MEL-28 melanoma
[42] = system: SK-MEL-5 melanoma
[43] = system: SK-OV-3 ovarian
[44] = system: SN12C renal
[45] = system: SNB-19 CNS
[46] = system: SR leukemia
[47] = system: SW-620 colon
[48] = system: T-47D breast
[49] = system: TK-10 renal
[50] = system: U251 CNS
[51] = system: UACC-257 melanoma
[52] = system: UACC-62 melanoma
[53] = system: UO-31 renal

`O=C1NC(=S)S/C1=C(/C=C(\CC(=O)c1ccccc1)c1ccc(Cl)cc1)c1ccccc1` gave a GI50 [1] of 46.9 µM, a TGI [1] greater than 100 µM and a GI50 [2] of 38 µM. It also gave a TGI [2] of 76 µM, a GI50 [3] of 20.2 µM and a TGI [3] greater than 100 µM. For the same compound, the GI50 [4] was 25.5 µM, the TGI [4] was 61.3 µM and the GI50 [5] was 33 µM. It also gave a TGI [5] greater than 100 µM, a GI50 [6] of 33.7 µM and a TGI [6] greater than 100 µM. For the same compound, the GI50 [7] was 24.7 µM, the TGI [7] was 73.7 µM and the GI50 [8] was 32.5 µM. For the same compound, the TGI [8] was greater than 100 µM, the GI50 [9] was 43.1 µM and the TGI [9] was greater than 100 µM. It also gave a GI50 [10] of 33.6 µM, a TGI [10] greater than 100 µM and a GI50 [11] of 18.2 µM. The TGI [11] was 47.4 µM, the GI50 [12] was 31.8 µM and the TGI [12] was greater than 100 µM. It also gave a GI50 [13] of 15.8 µM, a TGI [13] of 39.4 µM and a GI50 [14] of 21.7 µM. For the same compound, the TGI [14] was 55.2 µM, the GI50 [15] was 38.5 µM and the TGI [15] was greater than 100 µM. It also gave a GI50 [16] of 42.3 µM, a TGI [16] of 85.4 µM and a GI50 [17] of 41.6 µM. The TGI [17] was greater than 100 µM, the GI50 [18] was 15.3 µM and the TGI [18] was greater than 100 µM. It also gave a GI50 [19] of 28.2 µM, a TGI [19] greater than 100 µM and a GI50 [20] of 37.6 µM. It also gave a TGI [20] greater than 100 µM, a GI50 [21] of 24.7 µM and a TGI [21] of 63.4 µM. For the same compound, the GI50 [22] was 39.9 µM, the TGI [22] was greater than 100 µM and the GI50 [23] was 19.8 µM. For the same compound, the TGI [23] was 48.1 µM, the GI50 [24] was 25 µM and the TGI [24] was 72.6 µM. It also gave a GI50 [25] of 37.2 µM, a TGI [25] greater than 100 µM and a GI50 [26] of 19.5 µM. It also gave a TGI [26] of 51.6 µM, a GI50 [27] of 28.5 µM and a TGI [27] of 90.4 µM. The GI50 [28] was 21.8 µM, the TGI [28] was 48.8 µM and the GI50 [29] was 19.9 µM. The TGI [29] was 45.7 µM, the GI50 [30] was 17.9 µM and the TGI [30] was 44.9 µM. The GI50 [31] was 28.4 µM, the TGI [31] was 79.9 µM and the GI50 [32] was 24.2 µM. For the same compound, the TGI [32] was greater than 100 µM, the GI50 [33] was 44.9 µM and the TGI [33] was greater than 100 µM. It also gave a GI50 [34] of 65.4 µM, a TGI [34] greater than 100 µM and a GI50 [35] of 26.5 µM. It also gave a TGI [35] greater than 100 µM, a GI50 [36] of 25.8 µM and a TGI [36] of 83.3 µM. It also gave a GI50 [37] of 23.4 µM, a TGI [37] of 82.1 µM and a GI50 [38] of 27.1 µM. It also gave a TGI [38] of 96 µM, a GI50 [39] of 23.4 µM and a TGI [39] of 64.7 µM. For the same compound, the GI50 [40] was 39 µM, the TGI [40] was greater than 100 µM and the GI50 [41] was 61.9 µM. It also gave a TGI [41] greater than 100 µM, a GI50 [42] of 19.1 µM and a TGI [42] of 34.3 µM. It also gave a GI50 [43] greater than 100 µM, a TGI [43] greater than 100 µM and a GI50 [44] of 25.3 µM. For the same compound, the TGI [44] was 56.3 µM, the GI50 [45] was 95.1 µM and the TGI [45] was greater than 100 µM. For the same compound, the GI50 [46] was 27 µM, the TGI [46] was 63.3 µM and the GI50 [47] was 42.9 µM. It also gave a TGI [47] greater than 100 µM, a GI50 [48] of 35.6 µM and a TGI [48] greater than 100 µM. It also gave a GI50 [49] of 29.6 µM, a TGI [49] greater than 100 µM and a GI50 [50] of 30.9 µM. It also gave a TGI [50] greater than 100 µM, a GI50 [51] of 21.9 µM and a TGI [51] of 61.8 µM. The GI50 [52] was 21.6 µM, the TGI [52] was 43.7 µM and the GI50 [53] was 48.6 µM. It also gave a TGI [53] greater than 100 µM.
